This passage reports remaining activity results from article PMC8286840, “Identifying SARS-CoV-2 antiviral compounds by screening for small molecule inhibitors of Nsp3 papain-like protease” (Biochemical Journal, 2021).

The target in experiment [1] is T1, SARS-CoV-2 PLpro (nsp3 1564–1878) (Severe acute respiratory syndrome coronavirus 2, UniProt P0DTD1). The experiment can be described thus: biochemical. The arrangement: FRET-quenched peptide (Pro3) cleavage by PLpro, 10 min pre-incubation, slope over 20 min, normalised to no-compound control. Conditions: low concentration screen, read-out: % of control remaining.

Experiment [2] addresses T1, SARS-CoV-2 PLpro (nsp3 1564–1878). The experiment can be described thus: biochemical. The arrangement: FRET-quenched peptide (Pro3) cleavage by PLpro, 10 min pre-incubation, slope over 20 min, normalised to no-compound control. Conditions: high concentration screen, read-out: % of control remaining.

Structures can show the parent of a compound that is named as a salt. Where two headings read alike, the source gives them in different places.

Regarding `Cn1cc(C2=C(c3ccc(Cl)cc3Cl)C(=O)NC2=O)c2ccccc21` [SB-216763], the remaining activity at 1.25 µM in experiment [1] (Well no.=3035) worked out at 87.5%. For the same compound, the remaining activity at 3.75 µM in experiment [2] (Well no.=3035) was found to be 89.6%.
Take `CC[C@H](NC(=O)c1c(C)c(-c2ccccc2)nc2ccccc12)c1ccccc1` [SB-222200]: in experiment [1] (Well no.=7005), the remaining activity at 1.25 µM is 96.1%. Further, the remaining activity at 3.75 µM in experiment [2] (Well no.=7005) is 86.5%.
`Cc1ccccc1N(C)C(=O)c1ccc([S+]([O-])c2nccs2)c([N+](=O)[O-])c1` (stereo not shown) [SB-268262]: in experiment [1] (Well no.=5777), the remaining activity at 1.25 µM was determined as 99.5%. Moreover, the remaining activity at 3.75 µM in experiment [2] (Well no.=5777) is 100%.
As to `CC1CCN(CC[C@H]2CCCN2S(=O)(=O)c2cccc(O)c2)CC1` [SB-269970 (hydrochloride)], the remaining activity at 1.25 µM in experiment [1] (Well no.=8385) was 108%. For the same compound, the remaining activity at 3.75 µM in experiment [2] (Well no.=8385) turned out to be 101%.
For the compound `Cc1nc2ccc(NC(=O)Nc3ccnc4cccnc34)cc2o1` [SB-334867 (free base)], in experiment [1] (Well no.=6999), the remaining activity at 1.25 µM came out at 101%. Further, the remaining activity at 3.75 µM in experiment [2] (Well no.=6999) worked out at 104%.
In the case of `COc1cccc(NC(=O)/C=C/c2ccc(Cl)cc2)c1` [SB-366791], the remaining activity at 1.25 µM in experiment [1] (Well no.=1260) came to 104%. In addition, in experiment [2] (Well no.=1260), the remaining activity at 3.75 µM is 103%.
Take `Cc1cc(NC(=O)Nc2ccc(N(C)C)cc2)c2cc(F)cc(F)c2n1` [SB-408124 (Hydrochloride)]: the remaining activity at 1.25 µM in experiment [1] (Well no.=6939) turned out to be 99.4%. Also, the remaining activity at 3.75 µM in experiment [2] (Well no.=6939) is 98.8%.
As to `Cc1cc(NC(=O)Nc2ccc(N(C)C)cc2)c2cc(F)cc(F)c2n1` [SB-408124], the remaining activity at 1.25 µM in experiment [1] (Well no.=4955) was 90.2%; in experiment [1] (Well no.=8481), 104%. The remaining activity at 3.75 µM was 94.9% in experiment [2] (Well no.=4955) and 102% in experiment [2] (Well no.=8481).
Turning to `Cc1cccc(-c2[nH]c(C(C)(C)C)nc2-c2ccc3c(c2)OCO3)n1` [SB-505124], the remaining activity at 1.25 µM in experiment [1] (Well no.=4814) was 101%. For the same compound, in experiment [2] (Well no.=4814), the remaining activity at 3.75 µM was determined as 95.6%.
`Cc1nc(C(=O)N2CCC[C@H]2Cc2nnc(-c3ccccc3)o2)c(-c2ccccc2F)s1` [SB-674042]: in experiment [1] (Well no.=7083), the remaining activity at 1.25 µM worked out at 102%. In addition, in experiment [2] (Well no.=7083), the remaining activity at 3.75 µM came to 98.9%.
As to `O=S(=O)(c1ccccc1)c1cnc2c(N3CCNCC3)cccc2c1` [SB-742457], the results for the remaining activity at 1.25 µM in experiment [1] (Well no.=4839) and in experiment [1] (Well no.=7183) were 98.1% and 94.6%, respectively. The remaining activity at 3.75 µM is 104% in experiment [2] (Well no.=4839) and 91.3% in experiment [2] (Well no.=7183).
In the case of `Cc1cc(/C(O)=C2\C(=O)C(=O)N(CCCN3CCOCC3)C2c2ccncc2)ccc1OCc1ccccc1` (stereo not shown) [SBC-115076], the remaining activity at 1.25 µM in experiment [1] (Well no.=7844) came to 101%. The remaining activity at 3.75 µM in experiment [2] (Well no.=7844) was 95.8%.
With `CNC(=O)c1ccccc1Oc1nc(Nc2cc(OC)c(OC)c(OC)c2)ncc1Br` [SBI-0206965], the remaining activity at 1.25 µM in experiment [1] (Well no.=7028) was 105%. Besides, in experiment [2] (Well no.=7028), the remaining activity at 3.75 µM came to 103%.
Regarding `O=C(c1ccccc1)c1ccc2nc(NC(=O)c3csc(C4CCN(c5ncnc6ccsc56)CC4)n3)[nH]c2c1` [SC75741], the remaining activity at 1.25 µM in experiment [1] (Well no.=6922) is 100%. Further, the remaining activity at 3.75 µM in experiment [2] (Well no.=6922) was determined as 101%.
With `CC(=O)NNC(=O)N1Cc2ccccc2Oc2ccc(Cl)cc21` [SC 19220], in experiment [1] (Well no.=1408), the remaining activity at 1.25 µM is 101%. Further, the remaining activity at 3.75 µM in experiment [2] (Well no.=1408) was determined as 100%.
`NS(=O)(=O)c1ccc(-n2nc(C(F)(F)F)cc2-c2ccc(Cl)cc2)cc1` [SC-236]: in experiment [1] (Well no.=5773), the remaining activity at 1.25 µM was determined as 110%. In addition, the remaining activity at 3.75 µM in experiment [2] (Well no.=5773) was 98%.
On to `Cc1nc(-c2ccccc2)c(-c2ccncc2)o1` [SC-68376], for which, in experiment [1] (Well no.=2650), the remaining activity at 1.25 µM amounted to 96.3%. Besides, the remaining activity at 3.75 µM in experiment [2] (Well no.=2650) is 102%.
Regarding `CN1CCc2cc(Cl)c(O)cc2[C@@H](c2ccccc2)C1` [SCH 23390 (hydrochloride)], the remaining activity at 1.25 µM in experiment [1] (Well no.=7813) worked out at 109%. The remaining activity at 3.75 µM in experiment [2] (Well no.=7813) was found to be 102%.
As for `Nc1nc2c(cnn2CCc2ccccc2)c2nc(-c3ccco3)nn12` [SCH 58261], the remaining activity at 1.25 µM turned out to be 95.3% in experiment [1] (Well no.=7907) and 98.9% in experiment [1] (Well no.=8309). Also, the values for the remaining activity at 3.75 µM in experiment [2] (Well no.=7907) and in experiment [2] (Well no.=8309) were 99.3% and 97.1%, respectively.
On to `CC[C@@H](Nc1c(Nc2cccc(C(=O)N(C)C)c2O)c(=O)c1=O)c1ccc(C)o1` [SCH 527123], for which the remaining activity at 1.25 µM in experiment [1] (Well no.=7087) turned out to be 102%. Moreover, in experiment [2] (Well no.=7087), the remaining activity at 3.75 µM amounted to 97.3%.
Consider `CC[C@H]1CN(c2nc(N)c(C(N)=O)nc2Cl)CCN1C1CCN(Cc2ccc(Cl)cc2)CC1` [SCH 546738], for which the remaining activity at 1.25 µM in experiment [1] (Well no.=8659) was 103%. Also, the remaining activity at 3.75 µM in experiment [2] (Well no.=8659) was determined as 106%.
With `CN=c1nc(-c2ccccc2)n(-c2ccccc2)s1` [SCH-202676 hydrobromide], the remaining activity at 1.25 µM in experiment [1] (Well no.=1314) stood at 98.7%. In addition, in experiment [2] (Well no.=1314), the remaining activity at 3.75 µM was 97.4%.
Regarding `COc1ccc(CCCn2ncc3c2nc(N)n2nc(-c4ccco4)nc32)cc1` [SCH-442416], the remaining activity at 1.25 µM in experiment [1] (Well no.=5870) was determined as 98.1%. The remaining activity at 3.75 µM in experiment [2] (Well no.=5870) was 97.4%.
Take `NC(=O)c1ccc2[nH]ccc2c1` [SD169]: in experiment [1] (Well no.=2797), the remaining activity at 1.25 µM worked out at 106%. For the same compound, in experiment [2] (Well no.=2797), the remaining activity at 3.75 µM amounted to 106%.
With `Fc1ccc(Cl)cc1-c1nc(Nc2ccncc2)c2nccnc2n1` [SD 208 - 2-(5-Chloro-2-fluorophenyl)-4-[(4-pyridyl)amino]pteridine], in experiment [1] (Well no.=2680), the remaining activity at 1.25 µM turned out to be 97.3%. Besides, the remaining activity at 3.75 µM in experiment [2] (Well no.=2680) amounted to 99.7%.
For `O=C(CO)N1CCC(c2n[nH]c(-c3ccc(Cl)cc3)c2-c2ccncn2)CC1` [SD-06], in experiment [1] (Well no.=2897), the remaining activity at 1.25 µM was 99.5%. Further, in experiment [2] (Well no.=2897), the remaining activity at 3.75 µM was 97%.
With `CCN(CC)CCOC(=O)c1cc(Cl)c(N)cc1OC` [SDZ-205,557 hydrochloride], the remaining activity at 1.25 µM in experiment [1] (Well no.=1327) amounted to 101%. Moreover, the remaining activity at 3.75 µM in experiment [2] (Well no.=1327) was determined as 100%.
`Cc1cc(Nc2ccc(NC(=O)c3ccc(Nc4ccnc5ccccc45)cc3)cc2)nc(N)n1` [SGI-1027]: in experiment [1] (Well no.=5518), the remaining activity at 1.25 µM worked out at 105%. In addition, the remaining activity at 3.75 µM in experiment [2] (Well no.=5518) is 102%.
As to `CN1CCC(CNc2ccc3ncc(-c4cccc(OC(F)(F)F)c4)n3n2)CC1` [SGI-1776 free base], the remaining activity at 1.25 µM in experiment [1] (Well no.=4818) was determined as 88.4%. Besides, the remaining activity at 3.75 µM in experiment [2] (Well no.=4818) turned out to be 86.2%.
On to `Cn1cc(-c2ccc3nnc(Sc4ccc5ncccc5c4)n3n2)cn1` [SGX-523], for which the remaining activity at 1.25 µM in experiment [1] (Well no.=4665) is 104%. Besides, in experiment [2] (Well no.=4665), the remaining activity at 3.75 µM was found to be 106%.
For the compound `Cc1ccc(O)c(N=Nc2ccccc2)n1` [SIB 1757], the remaining activity at 1.25 µM in experiment [1] (Well no.=1371) was 99.7%. Also, the remaining activity at 3.75 µM in experiment [2] (Well no.=1371) amounted to 102%.
With `Cc1cccc(/C=C/c2ccccc2)n1` [SIB 1893], the remaining activity at 1.25 µM in experiment [1] (Well no.=1419) was determined as 96.6%. For the same compound, the remaining activity at 3.75 µM in experiment [2] (Well no.=1419) was determined as 95.7%.
